Measured values from patent US5221675A, “Aza-spirocyclic compounds that enhance cholinergic neurotransmission” (Abbott Laboratories, priority 1991, dated 1993).

Assays:
[1] = in vivo; cited from earlier work
M1 muscarinic receptor = molecular target: T1, M1 muscarinic receptor (Rattus norvegicus, UniProt P08482); assay: Competition with [3H]pirenzepine at cortical M1 muscarinic receptors; assay type: binding; details: Table 3; read-out: M1 Ki
T1 construct: from tissue; host or cells: adult rat fronto-parietal cortex membranes (homogenate)
T1 sequence (P08482 1-460): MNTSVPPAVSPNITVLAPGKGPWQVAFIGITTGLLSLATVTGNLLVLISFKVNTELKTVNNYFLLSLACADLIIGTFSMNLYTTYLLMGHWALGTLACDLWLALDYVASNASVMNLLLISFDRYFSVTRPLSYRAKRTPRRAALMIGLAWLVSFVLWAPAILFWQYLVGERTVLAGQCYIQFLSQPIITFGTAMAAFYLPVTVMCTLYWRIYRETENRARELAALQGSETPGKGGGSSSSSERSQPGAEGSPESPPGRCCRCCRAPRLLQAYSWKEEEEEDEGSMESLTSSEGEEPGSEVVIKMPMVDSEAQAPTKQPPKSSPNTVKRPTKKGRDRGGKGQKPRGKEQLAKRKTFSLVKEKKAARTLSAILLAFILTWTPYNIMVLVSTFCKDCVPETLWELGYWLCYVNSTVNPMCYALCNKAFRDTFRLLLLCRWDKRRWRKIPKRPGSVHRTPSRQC

M2 muscarinic receptor = M2 muscarinic receptor (Rattus norvegicus, UniProt P10980); assay type: binding; details: read-out: M2 Ki; Table 3
[2] = molecular target: neuronal nicotinic cholinergic receptor; assay: [3H]-MCC binding to nicotinic receptors in whole rat brain membranes; details: for Ki: Table 3, [3H]-MCC, rat brain membranes, 4° C., read-out: Nic Ki (binding to the nicotinic receptor); for Nic % Enhancement @ Max. Effect: at 0.0001 (mM) as printed; for Nic Conc. @ Max. Effect: concentration giving maximal enhancement of [3H]-MCC binding; for Affinity for M1/M2 muscarinic and nicotinic neuronal binding sites: muscarinic (M1 or M2) and nicotinic; for Affinity for M1/M2 muscarinic and nicotinic neuronal binding sites / Binding of other nicotinic ligands to the neuronal nicotinic receptor: words
Method: Binding of [^3 H]methylcarbamylcholine ([^3 H]-MCC) to nicotinic receptors is accomplished using crude synaptic membranes prepared from whole rat brain (Snyder and Enna, Brain Res. 1975, 100:81). Washed membranes are stored at -80° C. prior to use. Frozen aliquots are slowly thawed and resuspended in 20 volumes of buffer (containing: 120 mM NaCl, 5 mM KCl, 2 mM MgCl2, 2 mM CaCl2, and 50 mM Tris-Cl, pH 7.4 @4° C.). After centrifuging at 20K×9 for 15 minutes, the pellets are resuspended in 30 volumes of buffer. Homogenate ([…]) is added to triplicate tubes containing concentrations of test compound and [^3 H]-MCC (3 nM) in a final volume of […]. Samples are incubated for 60 minutes at 4° C., then rapidly filtered through Whatman GF/B filters presoaked in 0.5% polyethylimine using 3×4 ml of ice-cold buffer. The filters are counted in 4 mL of Ecolume (ICN). Nonspecific binding is determined in the presence of 10 […] and values were expressed as a percentage of total binding. IC50 values are determined with the ALLFIT curve-fitting program and IC50 values are converted to Ki values using the Cheng and Prusoff correction, (Ki=IC50 /(1+[ligand]/Kd ligand). Alternatively, data are expressed as a percentage of the total specific binding.

male Sprague-Dawley rats = assay: Mean arterial pressure, resting CBF and basal forebrain-elicited cortical CBF (laser-Doppler flowmetry); assay type: in vivo, rat
Method: General Surgery for CBF Measurement--Methods for surgical preparation of rats for electrical stimulation of brain and measurement of rCBF have been previously described (Nakai et al., Am. J. Physiol. 1982, 243:226) and are summarized below.
Studies are conducted on male Sprague-Dawley rats that are maintained in a thermally controlled (26°-27° C.) light-cycled (07.00 hour on-019.00 hour off) environment, fed standard rat chow and given water ad libitum. Anesthesia is induced with halothane (3.5%; balance 02) delivered through a nose mask and maintained at 2% during the initial surgery. Thin-wall vinyl catheters (o.d.=0.03 inch) are placed in each femoral artery and vein, and the trachea is cannulated.
Animals are subsequently co-anesthetized with urethane (1.5 g/kg, s.c.) and placed in a stereotaxic frame with the head positioned so that the floor of the IVth ventricle was horizontal (incisor bar position: -11 mm.). After connecting the tracheal cannula to a small-animal respirator, the animals are paralyzed with d-tubocurarine (0.6 mg/kg/h, i.m.), and ventilated (80 cpm) with 100% 02. Arterial pressure (AP) and heart rate (HR) are continuously monitored through one of the arterial catheters connected to a Statham P23Db transducer that is coupled to a chart recorder. The level of anesthesia during surgery or subsequent experimental testing is assessed by the AP response to tail pinch, with increasing levels of arousal giving rise to irregular AP readings. Booster doses of urethane (250 mg/kg, s.c.) are given as needed.
Bilateral craniotomies (approximately 4 mm×11 mm) are performed overlying the frontoparietal cortices taking care to leave the dura intact. Halothane is delivered at a reduced rate of 1% during cranial surgery and discontinued afterward. A small volume (about 0.2 ml) of arterial blood is sampled after completion of all surgery for measurement of PO2, PCO2 and pH by a blood gas analyzer. Arterial blood gases are maintained so that PO2 was greater than 100 mm Hg, PCO2 =33-38 mm Hg, and pH=7.35-7.45. Maintaining these values is accomplished by adjusting the stroke volume of the ventilator. Once appropriate physiological parameters are obtained (approximately 30 min), the experimental protocol is initiated.
Electrical Stimulation of the Basal Forebrain (BF)--The BF is stimulated with cathodal current delivered through a stainless steel concentric bipolar electrode ([…]) made by Rhodes Medical Instruments (Model SNEX-100). Electrical pulses are generated by a square wave stimulator (Grass, Model S-88) and constant current is passed through a photoelectric stimulus-isolation unit (Grass, Model PSIU6). The stimulus current is measured on an oscilloscope by continuously displaying the voltage drop across a 10-ohm resistor.
The procedure for eliciting an increased cortical CBF response requires the stereotaxic placement of the stimulating electrode into the BF. For positioning, the electrode is inclined posteriorly to 18 degrees, and the stereotaxic coordinates used were 5.0 mm posterior to, and 2.6 mm lateral to bregma (stereotaxic zero reference point). […] These parameters have been shown previously to elicit maximal increases in cortical CBF (Arneric, Excerpta Medica International Congress Series, Vol. 869:381, 1989). The region of the BF that selectively affects cortical CBF is restricted, with electrode movements of 0.5 mm dorsal or ventral to this site eliciting potent vasodepressor responses in addition to the increases in CBF. […] When CBF increases of approximately 100% or greater are repeatedly obtained in the absence of significant changes in AP (<10 mm Hg) or HR (<10 beats/min.), and when the perfusion rate is stable in the absence of BF stimulation, the experimental testing is started.
CBF Measurement with Laser--Dopler Flowmetry (LDF)--The principles and technical aspects of LDF are presented in detail elsewhere (Bonner et al., Appl. Opt. 1981, 20:2097; Stern et al., Am. J. Physiol. 1977, 232:H441). […]

[3] = tested on: Rat striatal muscarinic receptors; assay: Agonist intrinsic activity: inhibition of forskolin-activated [3H]cAMP in dissociated rat striatum; assay type: cell-based; details: selective muscarinic antagonist
From the text: Rat striatal muscarinic receptors are coupled to the inhibition of the conversion of adenosine triphosphate (ATP) to cyclic adenosine monophosphate (cAMP). […] The ATP stores in dissociated rat striatum were labeled with [^3 H]adenine and [^3 H]-cAMP levels were elevated with 10 um forskolin.

[4] = 0.01 mg/kg, iv, mean of three experiments

Chain of M2 muscarinic receptor (P10980 whole entry): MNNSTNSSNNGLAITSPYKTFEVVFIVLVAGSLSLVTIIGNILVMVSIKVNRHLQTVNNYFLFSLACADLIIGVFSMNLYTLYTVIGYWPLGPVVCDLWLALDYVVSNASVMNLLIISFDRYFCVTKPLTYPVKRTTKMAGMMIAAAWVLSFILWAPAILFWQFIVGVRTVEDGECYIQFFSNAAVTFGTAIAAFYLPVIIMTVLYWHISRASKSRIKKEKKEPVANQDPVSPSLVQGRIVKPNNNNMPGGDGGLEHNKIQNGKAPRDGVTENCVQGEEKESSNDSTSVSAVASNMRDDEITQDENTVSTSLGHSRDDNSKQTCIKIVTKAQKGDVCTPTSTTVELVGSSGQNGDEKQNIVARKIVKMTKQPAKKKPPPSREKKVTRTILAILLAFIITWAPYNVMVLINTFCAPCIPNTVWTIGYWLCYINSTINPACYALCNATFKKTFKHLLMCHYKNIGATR

Compound | Ki (M1 muscarinic receptor) | Ki (M2 muscarinic receptor) | Ki [2] | Nic % Enhancement @ Max. Effect [2] | Nic Conc. @ Max. Effect [2] | Affinity for M1/M2 muscarinic and nicotinic neuronal binding sites [2] | Binding of other nicotinic ligands to the neuronal nicotinic receptor [2] | other results
C[N+](C)(C)CCOC(N)=O [carbachol] |  |  |  |  |  |  |  | CNS penetration [1]: poor CNS penetration
CN1C(=O)N(c2ccccc2)C2(CCNCC2)C1=O.Cl [Example 3, 3-Methyl-1-phenyl-1,3,8-triazaspiro[4,5]decane-2,4-dione hydrochloride] | > 100 µM | > 100 µM | > 100 µM | +42% | 0.0001 mM | little affinity | potently enhance the binding of other nicotinic ligands | BF-Elicited CBF Response, % Change from Pre-Drug CONTROL (male Sprague-Dawley rats; [4]): +39%; MAP, % Change from Pre-Drug CONTROL (male Sprague-Dawley rats; [4]): +5%; Resting CBF, % Change from Pre-Drug CONTROL (male Sprague-Dawley rats; [4]): +23%; Effects on MAP (male Sprague-Dawley rats; 0.01-10.0 mg/kg iv): No remarkable effects on MAP; Effects on blood pressure (male Sprague-Dawley rats; iv): no overt effects on blood pressure; Resting CBF and BF-elicited CBF response (male Sprague-Dawley rats; low concentrations, iv, words): effective in enhancing resting CBF and the BF-elicited CBF response
CN1CCC2(CC1)C(=O)N(C)C(=O)N2c1ccccc1 [Example 4, 3,8-Dimethyl-1-phenyl-1,3,8-triazaspiro[4,5]decane-2,4-dione] | 28 µM | > 100 µM | > 100 µM | +33% | 0.0001 mM | little affinity | potently enhance the binding of other nicotinic ligands | 
COC(=O)C1=CCCN(C)C1 [arecoline] |  |  |  |  |  |  |  | Pharmacokinetics [1]: unfavorable pharmacokinetics
CN1[C@@H]2CC[C@H]1C[C@@H](OC(=O)C(CO)c1ccccc1)C2 (some centres unmarked) [atropine, reference compound] |  |  |  |  |  |  |  | Blockade of all agonist responses [3]: fully blocked
